According to article PMC7221519, “Synthesis and Evaluation of [^18F]FEtLos and [^18F]AMBF3Los as Novel ^18F-Labelled Losartan Derivatives for Molecular Imaging of Angiotensin II Type 1 Receptors” (Molecules, 2020):
Values joined by “and” are separate entries in the source; they are usually repeats but may differ in a detail not shown here. Equal entries are not always repeated. Where two headings read alike, the source gives them in different places. Each block holds one compound with its values, some of them ahead of it.

Key:
[1] = design: method as in PMID 27199365; conditions: in vivo, 60 min; cited from earlier work
[2] = molecular target: rat kidney AT1R; design: method as in PMID 27199365; conditions: read-out: dissociation constant, KD; cited from earlier work
[3] = Log D7.4 measurement (octanol/PBS, gamma counting); type: physicochemical; conditions: pH 7.4, n = 3
Experimental: The log D7.4 values were determined according to the literature. Aliquots (2 μL) of [^18F]FEtLos and [^18F]AMBF3Los were added to polypropylene tubes containing 3 mL of octanol and 3 mL of PBS (phosphate-buffered saline). The samples were vortexed for 20 s (2 times) and centrifuged at 600× g for 15 min. Aliquots (0.1 mL) of each layer were counted in a gamma counter to determine the log D7.4 as log (counts in octanol layer/counts in PBS layer).

[4] = tested on: renal AT1R; experiment: Ex vivo µPET/CT imaging of mouse kidneys 10 min p.i.; type: in vivo, Balb/c Nude mice; conditions: losartan 70 mg/kg
Experimental: The renal AT1R binding specificity of [^18F]FEtLos was also evaluated by an ex vivo µPET/CT imaging of Balb/c Nude mice kidneys 10 min post injection (p.i.) of the tracer. […] These positive results of the ex vivo renal AT1R binding of [^18F]FEtLos might be possible due to the high AT1R density in the kidneys, that allows visualizing specific uptake in spite of the low AT1R binding affinity of [^18F]FEtLos.
Figure S12. Calibration curve for determining the molar activity of [18F]FEtLos. The curve represent the correlation between the area under the curve (AUC), recorded from the analytical HPLC profile at 254 nm, and the amount (nmol) of the product injected onto analytical HPLC.
(§1) Supplemental material and methods
1. Binding assays in cells with [18F]FEtLos […]
(§2) At the end of the incubation period, the supernatant was aspirated and cells were washed six times with ice-cold PBS, and further removed with cell scraper and transferred to a gamma counter tube. The activity in the cells was counted in a Cobra II gamma counter (Packard). […]
The AT1R binding specificity of [18F]FEtLos was evaluated by ex vivo µPET/CT imaging of healthy Balb/c Nude mice kidneys after ten minutes of intravenous injection of [18F]FEtLos with […]
(AT1R blocked). […] The ex vivo µPET/CT imaging was recorded using a FOV (field of view) of 60 mm and 15 min for PET scan, and 35 kV and 400 µA for CT scan.

[5] = tested on: CHO-AT1R cells; experiment: Cell binding (uptake) assay in CHO-AT1R and CHO cells; type: cell-based, Chinese hamster; conditions: 60 min at 4 °C; for AT1R-specific binding to CHO-AT1R cells (blocking with losartan potassium): losartan potassium 100 µM/well
Experimental: The cell binding assays were performed based on previous reports with modifications. […] To saturate the AT1R, the cells of the blocking group were treated with losartan 30 min before adding the radiolabelled compound. At the end of the incubation period, the supernatant was aspirated and cells were washed six times with ice-cold PBS, and further removed with cell scraper and transferred to a gamma counter tube. The cellular activity was counted in a Cobra II gamma counter (Packard). […]
as §1
1. Binding assays in cells with [18F]FEtLos
CHO-AT1R and CHO cells ([…]) were plated in a 6-well plate overnight and then incubated for one hour at 4 °C with 10 µCi (370 kBq) of [18F]FEtLos per well, in presence or absence […]
as §2

[6] = Biodistribution at 60 min p.i. in healthy NSG mice; type: in vivo, NOD.Cg-Prkdc^scidIl2rg^tm1Wjl/SzJ mice; conditions: n = 3
Experimental: Experiments involving animals were approved by the Animal Ethics Committee of the University of British Columbia (Protocol number: A16-0128). Immunodeficient NOD.Cg-Prkdc^scidII2rg^tm1Wjl/SzJ (NSG) mice were obtained from an in-house breeding colony at the Animal Resource Centre at BC Cancer Research Facility. Mice were always divided into baseline and AT1R blocked groups to assess the AT1R binding specificity of [^18F]AMBF3Los with the co-injection of the AT1R blocker losartan (18 mg/kg, dissolved in PBS).
(§3) The in vivo AT1R binding specificity of [^18F]AMBF3Los was evaluated in healthy mice by a dynamic PET scan. Healthy NSG mice were injected in the tail vein with 6 ± 1 MBq (170 ± 38 μCi) of [^18F]AMBF3Los and a sixty-minute dynamic PET scans was carried out on a μPET/CT scanner (Inveon, Siemens) following procedures reported previously. Alternatively, [^18F]AMBF3Los was concomitantly injected with the AT1R blocker losartan (18 mg/kg) before the dynamic acquisition. Before and during the acquisition, mice were sedated with a continuous flow of isoflurane anesthesia (2% isoflurane in oxygen). The µPET/CT images were analyzed with PMOD v3.3 software (PMOD Technologies, Zürich, Switzerland). An elliptical volume-of-interest that enclosed the entire kidney was positioned manually on the PET images for the determination of the kidney volume. Then, 3-dimensional isocontours were drawn automatically. For each VOI, the percentage of the injected dose in the region of interest, divided by the injected dose per animal weight (% ID/g) could be calculated directly using the output parameters from the μPET.
After the sixty-minute dynamic PET scans, anesthetized mice were euthanized by carbon dioxide asphyxiation and blood, fat, testis, intestines, stomach, spleen, liver, pancreas, adrenal glands, kidneys, lungs, heart, muscle, bone and brain were harvested, rinsed in PBS, weighted and counted in a Perkin Elmer (Waltham, MA, USA) Wizard2 2480 automatic gamma counter to quantify the percent of injected dose per gram of tissue (% ID/g).

[7] = tested on: renal AT1R; experiment: Autoradiography of mouse kidneys after 60-min dynamic µPET scan; type: in vivo, NOD.Cg-Prkdc^scidIl2rg^tm1Wjl/SzJ mice; conditions: autoradiography after 60-min dynamic µPET scan, co-injection of losartan potassium
Text: Kidneys harvested from healthy NSG mice (after the biodistribution studies), were rinsed in PBS and frozen in isopentane/dry-ice bath. Ten μm-thick slides of the kidneys were obtained using a cryostat (Leica, Wetzlar, Germany), and thaw-mounted onto Superfrost Plus microscope slides (Fischerbrand from Thermo Fisher Scientific, Toronto, ON, Canada), following general procedures of the lab. Afterwards, kidney slides were exposed to a phosphor screen overnight and imaged on a Typhoon FLA 9500 scanner (GE Healthcare, Chicago, IL, USA).

[8] = tested on: renal AT1R; experiment: Dynamic µPET scan of healthy NSG mice; type: in vivo, NOD.Cg-Prkdc^scidIl2rg^tm1Wjl/SzJ mice; conditions: early time points (10, 15 and 20 min), losartan 18 mg/kg
Experimental: as §3

[9] = molecular target: T1, human AT1R (Homo sapiens, UniProt P30556); experiment: Competition binding assay in membranes containing human AT1R, [125I]-(Sar1,Ile8)-Angiotensin II as radioligand; conditions: human AT1R membranes from CHO-K1 cells, displacement of [125I]-(Sar1,Ile8)-Angiotensin II, n = 3
T1 construct: purchased Perkin Elmer (Waltham, MA, USA); host or cells: CHO-K1 cells (recombinant membrane preparation)
T1 sequence (P30556 1-359): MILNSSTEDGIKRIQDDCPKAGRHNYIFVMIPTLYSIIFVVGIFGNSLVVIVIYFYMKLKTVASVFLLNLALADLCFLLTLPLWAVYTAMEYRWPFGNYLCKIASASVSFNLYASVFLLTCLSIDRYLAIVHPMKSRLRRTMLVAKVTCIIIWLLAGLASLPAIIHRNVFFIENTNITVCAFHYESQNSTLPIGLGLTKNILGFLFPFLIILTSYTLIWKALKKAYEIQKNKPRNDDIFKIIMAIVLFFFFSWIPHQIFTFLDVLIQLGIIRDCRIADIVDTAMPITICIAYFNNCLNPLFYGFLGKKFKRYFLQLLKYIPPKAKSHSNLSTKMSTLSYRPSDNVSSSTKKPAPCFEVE
Experimental: The assays were performed using membranes expressing the human angiotensin II type 1 receptor from CHO-K1 cells, purchased from Perkin Elmer (Waltham, MA, USA). […] The hot ligand [^125I]-(Sar1,Ile8)-Angiotensin II (81.4 TBq/mmol) was also purchased from Perkin Elmer (USA). The Multiscreen MSFCN6B50 96-well plates were used for this assay. The procedure was based on the recommended assay conditions from Perkin Elmer (Waltham, MA, USA) and procedures previously described for other AT1R ligands [22, 23]. Briefly, the 96-well plate was preincubated for 1–2 h at 4 °C with 200 μL of 0.5% BSA (Bovine Serum Albumin) followed by washing (3 times) with an assay buffer. Next, 150 µL of the membranes, diluted (1:150) in the buffer assay (50 mM Tris-HCl pH 7.4, 5 mM MgCl2) to a final concentration of 0.6 μg/well, were added to the wells followed by the addition of cold (25 µL) and hot ligand (25 µL). The plate was incubated for 60 min at 27 °C under stirring and at the end of the experiment all wells were washed (9 times) with ice-cold wash buffer (50 mM Tris-HCl pH 7.4) using vacuum. Afterwards, membranes were punched out and counted in a Perkin Elmer (Waltham, MA, USA) Wizard2 2480 automatic gamma counter. The Ki values were calculated by a non-linear curve fitting using GraphPad Prism 7.01 Software (San Diego, CA, USA). The experiment was done in triplicate.

[10] = design: method as in earlier work; conditions: cited from earlier work
[11] = AT1R Blocking (co-injection of losartan 18 mg/kg)

SMILES: CCCCc1nc(Cl)c(Cn2cc(CCCOc3cccnc3[18F])nn2)n1Cc1ccc(-c2ccccc2-c2nnn[nH]2)cc1 [[^18F]FPyKYNE-losartan]
liver uptake [1]: 66.7 % ID/g
Kd [2]: 49.4 nM

SMILES: CCCCc1nc(Cl)c(COCC[18F])n1Cc1ccc(-c2ccccc2-c2nnn[nH]2)cc1 [[^18F]FEtLos, [^18F]fluoroethyl-losartan]
logD ([3]; pH 7.4, octanol/PBS): 0.21 ± 0.09
kidney uptake in ex vivo µPET/CT, baseline versus co-injected losartan potassium [4]: high uptake in the kidneys (baseline), which was blocked
AT1R-specific binding to CHO-AT1R cells (blocking with losartan potassium) [5]: did not show any specific AT1R binding
AT1R-specific binding to CHO-AT1R cells (blocking with losartan potassium) ([5]; listed as [18F]FEtLos): non-significant blocking effect

SMILES: CCCCc1nc(Cl)c(CO)n1Cc1ccc(-c2ccccc2-c2nn[nH]n2)cc1 [Losartan potassium, 2-butyl-4-chloro-5-hydroxymethyl-1-[(2′-(1H-tetrazol-5-yl)biphenyl-4-yl)methyl]-1H-imidazole]
log D7.4 [10]: 1.7

SMILES: CCCCc1nc(Cl)c(COCCF)n1Cc1ccc(-c2ccccc2-c2nnn[nH]2)cc1 [FEtLos, 2-butyl-4-chloro-5-(2-fluoroethoxy)methyl-1-[(2′-(1H-tetrazol-5-yl)biphenyl-4-yl)methyl]-1H-imidazole]
Ki [9]: 2200 ± 200 nM

Second part, led by results:

Uptake, Adrenal glands [6, 11]: 0.11 ± 0.06 % ID/g
Uptake, Blood [6, 11]: 0.08 ± 0.08 % ID/g
Uptake, Bone [6, 11]: 0.11 ± 0.03 % ID/g
Uptake, Brain [6, 11]: 0.005 ± 0.004 % ID/g
Uptake, Fat [6, 11]: 0.008 ± 0.002 % ID/g
Uptake, Heart [6, 11]: 0.04 ± 0.03 % ID/g
Uptake, Intestines [6, 11]: 62 ± 3 % ID/g
Uptake, Kidneys [6, 11]: 1.9 ± 1.3 % ID/g
Uptake, Liver [6, 11]: 0.6 ± 0.3 % ID/g
Uptake, Lungs [6, 11]: 0.08 ± 0.04 % ID/g
Uptake, Muscle [6, 11]: 0.05 ± 0.04 % ID/g
Uptake, Pancreas [6, 11]: 0.07 ± 0.06 % ID/g
Uptake, Spleen [6, 11]: 0.08 ± 0.03 % ID/g
Uptake, Stomach [6, 11]: 2 ± 2 % ID/g
Uptake, Testis [6, 11]: 0.029 ± 0.008 % ID/g
Uptake, Adrenal glands ([6]; Baseline): 0.1 ± 0.1 % ID/g
Uptake, Blood ([6]; Baseline): 0.05 ± 0.03 % ID/g
Uptake, Bone ([6]; Baseline): 0.11 ± 0.06 % ID/g
Uptake, Brain ([6]; Baseline): 0.006 ± 0.005 % ID/g
Uptake, Fat ([6]; Baseline): 0.011 ± 0.004 % ID/g
Uptake, Heart ([6]; Baseline): 0.03 ± 0.01 % ID/g
Uptake, Intestines ([6]; Baseline): 63 ± 9 % ID/g
Uptake, Kidneys ([6]; Baseline): 3.5 ± 1.2 % ID/g
Uptake, Liver ([6]; Baseline): 0.5 ± 0.5 % ID/g
Uptake, Lungs ([6]; Baseline): 0.06 ± 0.03 % ID/g
Uptake, Muscle ([6]; Baseline): 0.02 ± 0.01 % ID/g
Uptake, Pancreas ([6]; Baseline): 0.05 ± 0.03 % ID/g
Uptake, Spleen ([6]; Baseline): 0.2 ± 0.1 % ID/g
Uptake, Stomach ([6]; Baseline): 0.06 ± 0.05 % ID/g
Uptake, Testis ([6]; Baseline): 0.03 ± 0.01 % ID/g
log D7.4 [3]: −0.43 ± 0.02 and −0.4
SMILES: CCCCc1nc(Cl)c(Cn2cc(C[N+](C)(C)C[B-](F)(F)[18F])nn2)n1Cc1ccc(-c2ccccc2-c2nnn[nH]2)cc1 [[^18F]AMBF3Los, [^18F]ammoniomethyltrifluoroborate-losartan]
renal cortex activity, times smaller in mouse blocked with losartan potassium versus unblocked [7]: approximately 5 times
renal cortex uptake in dynamic µPET with co-injected losartan potassium versus baseline [8]: reduced
in vitro cellular uptake in CHO-AT1R cells compared to CHO cells ([5]; 10 µCi per well): higher uptake
AT1R-specific binding to CHO-AT1R cells (blocking with losartan potassium) [5]: receptor-specific

Ki [9]: 7.9 nM
SMILES: CCCCc1nc(Cl)c(Cn2cc(C[N+](C)(C)C[B-](F)(F)F)nn2)n1Cc1ccc(-c2ccccc2-c2nnn[nH]2)cc1 [AMBF3Los, 2-butyl-4-chloro-5-[((1H-1,2,3-triazol-4-yl)-(N,N-dimethyl-ammoniomethyl-trifluoroborate)methyl)methyl]-1-[(2′-(1H-tetrazol-5-yl)biphenyl-4-yl)methyl]-1H-imidazole]
